Key:
[1] = tested on: LTB4 formation in human whole blood; assay: Calcium ionophore (A23187)-induced LTB4 biosynthesis in human whole blood; format: cell-based; conditions: human heparinized whole blood; 15 min preincubation at 37° C.; A23187 50.0 μM, 30 min; read-out: IC50, in vitro inhibitory potency against stimulated LTB4 formation in human whole blood
Protocol: Inhibition of leukotriene biosynthesis was evaluated in an assay, involving calcium ionophore-induced LTB4 biosynthesis in human whole blood. Human heparinized whole blood was preincubated with test compounds or vehicle for 15 min at 37° C. followed by calcium ionophore A23187 challenge (final concentration of 50.0 μM) and the reaction terminated after 30 min by adding two volumes of methanol. The methanol extract was analyzed for LTB4 using a commercially available immunoassay.

[2] = tested on: biosynthesis of leukotrienes; assay: Rat peritoneal anaphylaxis model, inhibition of leukotriene biosynthesis in vivo after oral administration; conditions: oral gavage one hour prior to antigen challenge, @ 15 mg/kg
Protocol: Inhibition of the biosynthesis of leukotrienes in vivo after oral administration of compound was determined using a rat peritoneal anaphylaxis model similar to that described by Young and coworkers (Young, P. R.; Bell, R. L.; Lanai, C.; Summers, J. B.; Brooks, D. W.; Carter, G. W. (1991): Inhibition of leukotriene biosynthesis in the rat peritoneal cavity. Eur. J. Pharmacol 1991, 205, 259-266). In this model rats were injected intraperitoneally (ip) with rabbit antibody to bovine serum albumin (BSA) and three hours later injected ip with BSA to induce an antigen-antibody response. Rats were sacrificed 15 minutes after this challenge and the peritoneal fluids were collected and analyzed for leukotriene levels. Test compounds were administered by gavage one hour prior to the antigen challenge. To measure immunoreactive leukotriene levels in the various lavage fluids, the samples were diluted 1:3 (v/v) with the EIA buffer containing 100 mM phosphate, 1.5 mM sodium azide, 400 mM sodium chloride, 0.1 mM sodium EDTA and 0.1% BSA, pH 7.4. Methanol, at a final concentration of 22%, was included in the assay standards to compensate for the amount in the biological samples. EIA reagents for cysteinyl leukotrienes determination were purchased from, Cayman Chemical Co., Ann Arbor, Mich. The LTE4 tracer was prepared in-house. The immunoassays for LTE4 were then conducted as recommended by the manufacturer with the exception that volumes were adjusted to accommodate automation using a Cetus Propette (Cetus Corp., San Francisco, Calif.). The EIA was conducted in 96 well microtiter plates (Nunc Roskilde, Denmark) and optical density measured using a microplate reader (Vmax, Molecular Devices Corp., Menlo Park, Calif.). Percent inhibition values were determined by comparing the treatment group to the mean of the control group.

[3] = tested on: biosynthesis of prostaglandins; assay: Rat pleural inflammation model (A23187), inhibition of prostaglandin biosynthesis in vivo; conditions: oral dose of 10 mg/kg, TXB2 by EIA
Protocol: (§1) Pleural inflammation was induced in male rats following the method of Rao et. al., Life Sci, 1993, 53, 52. Animals were dosed with experimental compounds in 0.2% HPMC one hour prior to the intrapleural injection of the calcium ionophore, A23187. The rats were lightly anesthetized with Penthrane (Abbott Laboratories) and injected intrapleurally with 0.5 ml of 2% ethanol in injectable saline (Abbott Laboratories) containing 20 μg of A23187 (Cal BioChem-Novabiochem). Thirty minutes later the animals were euthanized and the pleural cavities lavaged with ice cold saline. The lavage fluid was then added to ice cold methanol (final methanol concentration 30%) to lyse cells and precipitate protein.
(§2) Cyclooxygenase activity of whole blood was determined by analysis of these samples for TXB2 by EIA (Advanced Magnetics, Cambridge, Mass.).

[4] = tested on: biosynthesis of leukotrienes; assay: Rat pleural inflammation model (A23187), inhibition of leukotriene biosynthesis in vivo; conditions: oral dose of 10 mg/kg
Protocol: as §1, §2

LTB4 = assay: Dog ex vivo A23187-stimulated blood after oral dosing, inhibition of LTB4; format: in vivo; conditions: beagle dog, oral dose of 2 mg/kg, 8 hours after dosing; blood incubated with 50 μM A23187
Description: (§3) Inhibition of both leukotriene formation and prostaglandin formation was also shown in the dog. This was done using the method described by Carter et al. (Carter, G. W., Young, P. R., Albert, D. H., Bouska, J., Dyer, R., Bell, R. L., Summers, J. B. and Brooks, D. W.: J. Pharmacol. Exp. Ther. 256: 929-937, 1991.). Compound was suspended in 0.2% methylcellulose with a Potter-Elvehjem homogenizer equipped with a Teflon-coated pestle and administered orally to beagle dogs (Marshall Farms, North Rose, N.Y.) All animals were fasted overnight before dosing but allowed water ad libitum. Heparinized blood samples were obtained before and at various times after compound administration. Aliquots of blood were incubated at 37° with 50 μM with calcium ionophore, A23187. After 30 minutes, the blood was placed in an ice bath and analyzed for LTB4 and TXB2 as described above.

TXB2 = assay: Dog ex vivo A23187-stimulated blood after oral dosing, inhibition of TXB2; format: in vivo; conditions: beagle dog, oral dose of 2 mg/kg, 8 hours after dosing; blood incubated with 50 μM A23187
Description: as §3

| SMILES | IC50 [1] [nM] | % Inhibition (in vivo, leukotriene biosynthesis) [2] [%] | also measured |
| --- | --- | --- | --- |
| COc1ccc2cc([C@H](C)C(=O)ON(C(N)=O)C(C)C#Cc3ccc(Oc4ccc(F)cc4)o3)ccc2c1 (stereo partly drawn) [Example 18, N-[(S)-2-(6-methoxynaphth-2-yl)propionyloxy]-N-[3-(5-(4-fluorophenoxy)fur-2-yl)-1-methyl-2-propynyl]urea] | 1300 | 40 | – |
| COc1ccc2c(c1)c(CC(=O)ON(C(N)=O)C(C)c1cc3ccccc3s1)c(C)n2C(=O)c1ccc(Cl)cc1 (centres unmarked) [Example 4, N-[2-(N-(4-chlorobenzoyl)-5-methoxy-2-methyl-[1H]-indol-3-yl)acetoxy]-N-[1-(benzo[b]thien-2-yl)ethyl] urea] | 1800 | – | – |
| CC(C)Cc1ccc(C(C)C(=O)ON(C(N)=O)C(C)c2cc3ccccc3s2)cc1 (centres unmarked) [Example 3, N-[2-(4-(2-methylpropyl)phenyl)propionyloxy]-N -[1-(benzo[b]thien-2-yl)ethyl]urea] | 5800 | – | – |
| CC(C)Cc1ccc(C(C)C(=O)ON(C(N)=O)C(C)C#Cc2ccc(Oc3ccc(F)cc3)o2)cc1 (centres unmarked) [Example 19, N-[2-(4-(2-methylpropyl)phenyl)propionyloxy]-N-[3-(5-(4-fluorophenoxy)fur-2-yl)-1-methyl-2-propynyl]urea] | 1200 | 41 | – |
| COc1ccc2cc([C@H](C)C(=O)ON(C(N)=O)C(C)c3ccoc3)ccc2c1 (stereo partly drawn) [Example 1, N-[(S)-2-(6-methoxynaphth-2-yl)propionyloxy]-N-[1-(fur-3-yl)ethyl]urea] | 4000 | – | – |
| CC(=O)Oc1ccccc1C(=O)ON(C(N)=O)C(C)C#Cc1ccc(Oc2ccc(F)cc2)o1 (centres unmarked) [Example 37, N-[2-(acetoxybenzoyl)oxy]-N-[3-(5-(4-fluorophenoxy)fur-2-yl)-1-methyl-2-propynyl]urea] | 160 | – | – |
| COc1ccc2cc([C@H](C)C(=O)ON(C(N)=O)[C@H](C)C#Cc3ccc(Cc4ccc(F)cc4)s3)ccc2c1 [Example 21, N-[(S)-2-(6-methoxynaphth-2-yl)propionyloxy]-N-[3-(5-(4-fluorophenylmethyl)thien-2-yl)-(R)-1-methyl-2-propynyl]urea] | – | – | inhibition of the biosynthesis of prostaglandins [3]: 68%; inhibition of the biosynthesis of leukotrienes [4]: 71%; inhibition of LTB4 (LTB4): 54%; inhibition of TXB2 (TXB2): 47% |
| CC(C)Cc1ccc(C(C)C(=O)ON(C(N)=O)C(C)c2ccoc2)cc1 (centres unmarked) [Example 20, N-[2-(4-(2-methylpropyl)phenyl)propionyloxy]-N-[1-(fur-3-yl)ethyl]urea] | 9900 | 43 | – |
